Measured values: ChEMBL document CHEMBL1146823 (Bioorg Med Chem Lett, 2004)

What follows are compounds tested against T1, Carbonic anhydrase 4 (Bos taurus, UniProt Q95323).
T1 sequence (Q95323 whole entry): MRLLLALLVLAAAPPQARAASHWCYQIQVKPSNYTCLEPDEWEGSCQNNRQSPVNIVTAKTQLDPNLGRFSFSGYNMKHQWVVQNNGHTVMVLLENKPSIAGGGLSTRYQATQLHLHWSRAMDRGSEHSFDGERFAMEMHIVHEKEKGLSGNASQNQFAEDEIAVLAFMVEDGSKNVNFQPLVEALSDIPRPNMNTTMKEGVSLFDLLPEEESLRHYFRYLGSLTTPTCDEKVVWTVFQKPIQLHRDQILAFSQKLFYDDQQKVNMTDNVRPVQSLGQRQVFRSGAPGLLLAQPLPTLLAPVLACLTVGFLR
Description: Inhibitory activity of compound against bovine carbonic anhydrase IV

SMILES	IC50
Cc1ccc(-c2cc(C(F)(F)F)nn2-c2ccc(S(N)(=O)=O)cc2)cc1 [CELECOXIB]	290 nM
NS(=O)(=O)c1ccc(S(=O)(=O)Nc2cccc3c(Cl)c[nH]c23)cc1	65 nM

Now from value to compound:

IC50	SMILES
620 nM	CCN1CCCC1CNC(=O)c1cc(S(N)(=O)=O)ccc1OC (configuration not stated) [SULPIRIDE]
54 nM	CC1(C)O[C@@H]2[C@@H](CO[C@@]3(COS(N)(=O)=O)OC(C)(C)O[C@@H]23)O1 [TOPIRAMATE]
380 nM	NS(=O)(=O)c1cc(Cl)c(Cl)c(S(N)(=O)=O)c1 [DICHLORPHENAMIDE]

What follows are compounds tested against Carbonic anhydrase 1 (Homo sapiens, UniProt P00915).
Chain of Carbonic anhydrase 1 (P00915 whole entry): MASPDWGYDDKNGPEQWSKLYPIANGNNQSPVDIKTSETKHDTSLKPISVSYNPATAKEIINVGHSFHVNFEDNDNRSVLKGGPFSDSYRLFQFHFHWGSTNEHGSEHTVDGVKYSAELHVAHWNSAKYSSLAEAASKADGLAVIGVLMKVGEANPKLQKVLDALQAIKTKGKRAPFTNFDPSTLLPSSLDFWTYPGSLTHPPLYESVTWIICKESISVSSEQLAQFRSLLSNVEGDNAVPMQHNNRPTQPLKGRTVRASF
Description: Inhibitory activity of compound against human carbonic anhydrase I

SMILES	IC50
C[C@]12CC[C@@H]3c4ccc(OS(N)(=O)=O)cc4CCC3[C@@H]1CCC2=O (single isomer, unassigned) [EMATE]	37 nM
